Measured values taken from the supplement of paper PMC10307832.

Experiments:
Experiment in all cases: relative viability (nuclei count vs DMSO), 5 days (fraction); higher = more cells survive
Vemurafenib + Tozasertib = compound: CCCS(=O)(=O)Nc1ccc(F)c(C(=O)c2c[nH]c3ncc(-c4ccc(Cl)cc4)cc23)c1F [Vemurafenib] + Cc1cc(Nc2cc(N3CCN(C)CC3)nc(Sc3ccc(NC(=O)C4CC4)cc3)n2)n[nH]1 [Tozasertib] (partner 0.1 µM)
Outline: (§1)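 Relative viability is defined as nuclei in treated wells over nuclei in vehicle wells. Duplicate plates were run and medians reported. Lung cancer cell lines in 1536-well plates were dosed by pin tool one day after seeding, with one drug or with a fixed anchor-drug dose plus five library-drug doses (not always all listed) in √10 steps, and nuclei were counted after 5 days.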

Vemurafenib + Linsitinib = compound: CCCS(=O)(=O)Nc1ccc(F)c(C(=O)c2c[nH]c3ncc(-c4ccc(Cl)cc4)cc23)c1F [Vemurafenib] + C[C@]1(O)C[C@@H](c2nc(-c3ccc4ccc(-c5ccccc5)nc4c3)c3c(N)nccn32)C1 [Linsitinib] (partner 1 µM)
Outline: as §1

OSI-027 + Linsitinib = compound: COc1cccc2cc(-c3nc([C@H]4CC[C@H](C(=O)O)CC4)n4ncnc(N)c34)[nH]c12 [OSI-027] + C[C@]1(O)C[C@@H](c2nc(-c3ccc4ccc(-c5ccccc5)nc4c3)c3c(N)nccn32)C1 [Linsitinib] (partner 1 µM)
Outline: as §1

Alpelisib + Bortezomib = compound: Cc1nc(NC(=O)N2CCC[C@H]2C(N)=O)sc1-c1ccnc(C(C)(C)C(F)(F)F)c1 [Alpelisib] + CC(C)C[C@H](NC(=O)[C@H](Cc1ccccc1)NC(=O)c1cnccn1)B(O)O [Bortezomib] (partner 0.002 µM)
Outline: as §1

Cell Line: NCI-H727
- relative viability (Vemurafenib + Tozasertib; first compound 0.03162 µM): 0.506
- relative viability (Vemurafenib + Tozasertib; first compound 0.1 µM): 0.584
- relative viability (Vemurafenib + Tozasertib; first compound 0.3162 µM): 0.808
- relative viability (Vemurafenib + Tozasertib; first compound 1 µM): 0.775
- relative viability (Vemurafenib + Linsitinib; first compound 0.03162 µM): 0.265
- relative viability (Vemurafenib + Linsitinib; first compound 0.1 µM): 0.281
- relative viability (Vemurafenib + Linsitinib; first compound 0.3162 µM): 0.415
- relative viability (Vemurafenib + Linsitinib; first compound 1 µM): 0.394
- relative viability (OSI-027 + Linsitinib; first compound 0.01 µM): 0.239
- relative viability (OSI-027 + Linsitinib; first compound 0.03162 µM): 0.344
- relative viability (OSI-027 + Linsitinib; first compound 0.1 µM): 0.281
- relative viability (OSI-027 + Linsitinib; first compound 0.3162 µM): 0.229
- relative viability (OSI-027 + Linsitinib; first compound 1 µM): 0.264
- relative viability (Alpelisib + Bortezomib; first compound 0.04 µM): 0.806
- relative viability (Alpelisib + Bortezomib; first compound 0.1265 µM): 0.693
- relative viability (Alpelisib + Bortezomib; first compound 0.4 µM): 0.988
- relative viability (Alpelisib + Bortezomib; first compound 1.265 µM): 0.759
- relative viability (Alpelisib + Bortezomib; first compound 4 µM): 0.465

Cell Line: NCI-H838
- relative viability (Vemurafenib + Tozasertib; first compound 0.03162 µM): 0.233
- relative viability (Vemurafenib + Tozasertib; first compound 0.1 µM): 0.293
- relative viability (Vemurafenib + Tozasertib; first compound 1 µM): 0.285
- relative viability (Vemurafenib + Linsitinib; first compound 0.03162 µM): 0.979
- relative viability (Vemurafenib + Linsitinib; first compound 0.1 µM): 1.01
- relative viability (Vemurafenib + Linsitinib; first compound 1 µM): 1.14
- relative viability (OSI-027 + Linsitinib; first compound 0.01 µM): 0.819
- relative viability (OSI-027 + Linsitinib; first compound 0.03162 µM): 0.584
- relative viability (OSI-027 + Linsitinib; first compound 0.1 µM): 0.456
- relative viability (OSI-027 + Linsitinib; first compound 0.3162 µM): 0.305
- relative viability (OSI-027 + Linsitinib; first compound 1 µM): 0.254
- relative viability (Alpelisib + Bortezomib; first compound 0.04 µM): 0.692
- relative viability (Alpelisib + Bortezomib; first compound 0.1265 µM): 0.482
- relative viability (Alpelisib + Bortezomib; first compound 0.4 µM): 0.668
- relative viability (Alpelisib + Bortezomib; first compound 1.265 µM): 0.782
- relative viability (Alpelisib + Bortezomib; first compound 4 µM): 0.487

Cell Line: NCI-H1355
- relative viability (Vemurafenib + Tozasertib; first compound 0.03162 µM): 0.545
- relative viability (Vemurafenib + Tozasertib; first compound 0.1 µM): 0.559
- relative viability (Vemurafenib + Tozasertib; first compound 0.3162 µM): 0.56
- relative viability (Vemurafenib + Tozasertib; first compound 1 µM): 0.435
- relative viability (Vemurafenib + Linsitinib; first compound 0.03162 µM): 0.713
- relative viability (Vemurafenib + Linsitinib; first compound 0.1 µM): 0.709
- relative viability (Vemurafenib + Linsitinib; first compound 0.3162 µM): 0.801
- relative viability (Vemurafenib + Linsitinib; first compound 1 µM): 0.758
- relative viability (OSI-027 + Linsitinib; first compound 0.01 µM): 0.759
- relative viability (OSI-027 + Linsitinib; first compound 0.03162 µM): 0.687
- relative viability (OSI-027 + Linsitinib; first compound 0.1 µM): 0.643
- relative viability (OSI-027 + Linsitinib; first compound 0.3162 µM): 0.374
- relative viability (OSI-027 + Linsitinib; first compound 1 µM): 0.218
- relative viability (Alpelisib + Bortezomib; first compound 0.04 µM): 1.15
- relative viability (Alpelisib + Bortezomib; first compound 0.1265 µM): 1.23
- relative viability (Alpelisib + Bortezomib; first compound 0.4 µM): 1.29
- relative viability (Alpelisib + Bortezomib; first compound 1.265 µM): 1.09
- relative viability (Alpelisib + Bortezomib; first compound 4 µM): 0.961

Cell Line: NCI-H1437
- relative viability (Vemurafenib + Tozasertib; first compound 0.03162 µM): 0.404
- relative viability (Vemurafenib + Tozasertib; first compound 0.1 µM): 0.381
- relative viability (Vemurafenib + Tozasertib; first compound 0.3162 µM): 0.396
- relative viability (Vemurafenib + Tozasertib; first compound 1 µM): 0.363
- relative viability (Vemurafenib + Linsitinib; first compound 0.03162 µM): 0.972
- relative viability (Vemurafenib + Linsitinib; first compound 0.1 µM): 0.959
- relative viability (Vemurafenib + Linsitinib; first compound 0.3162 µM): 0.918
- relative viability (Vemurafenib + Linsitinib; first compound 1 µM): 0.871
- relative viability (OSI-027 + Linsitinib; first compound 0.01 µM): 0.962
- relative viability (OSI-027 + Linsitinib; first compound 0.03162 µM): 0.6
- relative viability (OSI-027 + Linsitinib; first compound 0.1 µM): 0.702
- relative viability (OSI-027 + Linsitinib; first compound 0.3162 µM): 0.292
- relative viability (OSI-027 + Linsitinib; first compound 1 µM): 0.155
- relative viability (Alpelisib + Bortezomib; first compound 0.04 µM): 0.504
- relative viability (Alpelisib + Bortezomib; first compound 0.1265 µM): 0.515
- relative viability (Alpelisib + Bortezomib; first compound 0.4 µM): 0.497
- relative viability (Alpelisib + Bortezomib; first compound 1.265 µM): 0.49
- relative viability (Alpelisib + Bortezomib; first compound 4 µM): 0.508

Cell Line: NCI-H1651
- relative viability (Vemurafenib + Tozasertib; first compound 0.03162 µM): 0.605
- relative viability (Vemurafenib + Tozasertib; first compound 0.1 µM): 0.594
- relative viability (Vemurafenib + Tozasertib; first compound 0.3162 µM): 0.636
- relative viability (Vemurafenib + Tozasertib; first compound 1 µM): 0.57
- relative viability (Vemurafenib + Linsitinib; first compound 0.03162 µM): 0.869
- relative viability (Vemurafenib + Linsitinib; first compound 0.1 µM): 1.09
- relative viability (Vemurafenib + Linsitinib; first compound 0.3162 µM): 1.02
- relative viability (Vemurafenib + Linsitinib; first compound 1 µM): 1.09
- relative viability (OSI-027 + Linsitinib; first compound 0.01 µM): 0.938
- relative viability (OSI-027 + Linsitinib; first compound 0.1 µM): 0.801
- relative viability (OSI-027 + Linsitinib; first compound 0.3162 µM): 0.514
- relative viability (OSI-027 + Linsitinib; first compound 1 µM): 0.285
- relative viability (Alpelisib + Bortezomib; first compound 0.04 µM): 0.913
- relative viability (Alpelisib + Bortezomib; first compound 0.1265 µM): 0.921
- relative viability (Alpelisib + Bortezomib; first compound 0.4 µM): 0.913
- relative viability (Alpelisib + Bortezomib; first compound 1.265 µM): 0.886
- relative viability (Alpelisib + Bortezomib; first compound 4 µM): 0.745

Cell Line: NCI-H1666
- relative viability (Vemurafenib + Tozasertib; first compound 0.03162 µM): 0.575
- relative viability (Vemurafenib + Tozasertib; first compound 0.1 µM): 0.549
- relative viability (Vemurafenib + Tozasertib; first compound 0.3162 µM): 0.801
- relative viability (Vemurafenib + Tozasertib; first compound 1 µM): 0.579
- relative viability (Vemurafenib + Linsitinib; first compound 0.03162 µM): 0.853
- relative viability (Vemurafenib + Linsitinib; first compound 0.3162 µM): 0.922
- relative viability (Vemurafenib + Linsitinib; first compound 1 µM): 0.841
- relative viability (OSI-027 + Linsitinib; first compound 0.01 µM): 0.775
- relative viability (OSI-027 + Linsitinib; first compound 0.03162 µM): 0.536
- relative viability (OSI-027 + Linsitinib; first compound 0.1 µM): 0.459
- relative viability (OSI-027 + Linsitinib; first compound 0.3162 µM): 0.337
- relative viability (OSI-027 + Linsitinib; first compound 1 µM): 0.39
- relative viability (Alpelisib + Bortezomib; first compound 0.04 µM): 0.837
- relative viability (Alpelisib + Bortezomib; first compound 0.1265 µM): 0.695
- relative viability (Alpelisib + Bortezomib; first compound 0.4 µM): 0.882
- relative viability (Alpelisib + Bortezomib; first compound 1.265 µM): 0.591
- relative viability (Alpelisib + Bortezomib; first compound 4 µM): 0.423

Cell Line: NCI-H1734
- relative viability (Vemurafenib + Tozasertib; first compound 0.03162 µM): 0.269
- relative viability (Vemurafenib + Tozasertib; first compound 0.1 µM): 0.246
- relative viability (Vemurafenib + Tozasertib; first compound 0.3162 µM): 0.281
- relative viability (Vemurafenib + Tozasertib; first compound 1 µM): 0.269
- relative viability (Vemurafenib + Linsitinib; first compound 0.03162 µM): 0.859
- relative viability (Vemurafenib + Linsitinib; first compound 0.1 µM): 0.847
- relative viability (Vemurafenib + Linsitinib; first compound 0.3162 µM): 0.759
- relative viability (Vemurafenib + Linsitinib; first compound 1 µM): 0.808
- relative viability (OSI-027 + Linsitinib; first compound 0.01 µM): 0.937
- relative viability (OSI-027 + Linsitinib; first compound 0.03162 µM): 0.794
- relative viability (OSI-027 + Linsitinib; first compound 0.1 µM): 0.809
- relative viability (OSI-027 + Linsitinib; first compound 0.3162 µM): 0.656
- relative viability (OSI-027 + Linsitinib; first compound 1 µM): 0.309
- relative viability (Alpelisib + Bortezomib; first compound 0.04 µM): 0.896
- relative viability (Alpelisib + Bortezomib; first compound 0.1265 µM): 0.814
- relative viability (Alpelisib + Bortezomib; first compound 0.4 µM): 0.943
- relative viability (Alpelisib + Bortezomib; first compound 1.265 µM): 0.623
- relative viability (Alpelisib + Bortezomib; first compound 4 µM): 0.518

Cell Line: NCI-H1755
- relative viability (Vemurafenib + Tozasertib; first compound 0.03162 µM): 0.516
- relative viability (Vemurafenib + Tozasertib; first compound 0.1 µM): 0.562
- relative viability (Vemurafenib + Tozasertib; first compound 0.3162 µM): 0.555
- relative viability (Vemurafenib + Tozasertib; first compound 1 µM): 0.53
- relative viability (Vemurafenib + Linsitinib; first compound 0.03162 µM): 0.946
- relative viability (Vemurafenib + Linsitinib; first compound 0.1 µM): 0.889
- relative viability (Vemurafenib + Linsitinib; first compound 0.3162 µM): 0.978
- relative viability (Vemurafenib + Linsitinib; first compound 1 µM): 0.91
- relative viability (OSI-027 + Linsitinib; first compound 0.01 µM): 0.976
- relative viability (OSI-027 + Linsitinib; first compound 0.03162 µM): 1.05
- relative viability (OSI-027 + Linsitinib; first compound 0.1 µM): 1.02
- relative viability (OSI-027 + Linsitinib; first compound 0.3162 µM): 0.885
- relative viability (OSI-027 + Linsitinib; first compound 1 µM): 0.392
- relative viability (Alpelisib + Bortezomib; first compound 0.04 µM): 0.911
- relative viability (Alpelisib + Bortezomib; first compound 0.1265 µM): 0.972
- relative viability (Alpelisib + Bortezomib; first compound 0.4 µM): 1.06
- relative viability (Alpelisib + Bortezomib; first compound 1.265 µM): 0.886
- relative viability (Alpelisib + Bortezomib; first compound 4 µM): 0.838
